These results are taken from patent US20150045330A1, “PROPHYLACTIC AND THERAPEUTIC DRUG FOR AMYOTROPHIC LATERAL SCLEROSIS AND METHOD OF SCREENING THEREFOR” (priority 2012, published 2015).

Series [1] concerns TNFα/NF-κB, andorogen receptor and α6β4 integrin pathways. Put plainly: Signal transduction pathway analysis in ALS-iPS cell-derived neurons. Particulars: AA addition vs non-addition; FIG. 13B. It is filed as cell-based, human.
In the next series the test system is insoluble TDP-43. Put plainly: Amount of TDP-43 protein insoluble in 1% Triton X-100 solution in ALS-MNs. It is filed as cell-based, human. The note with it: AA addition, FIGS. 12G and H.
The test system of series [2] is ALS-MNs. The experiment in a line: MDA (malondialdehyde)-modified protein in total protein by Western blotting. It is filed as cell-based, human. The note with it: AA addition vs non-addition, particularly proteins of about 30 kDa to 50 kDa, FIG. 14. An excerpt: Sequentially, to confirm an antioxidant action of AA, the amount of the protein modified with MDA (malondialdehyde) in the total protein was confirmed by Western blotting using 5 to 15% gradient gel in the AA addition group and the AA non-addition group of control MNs or ALS-MNs. […] This tendency was particularly strong in proteins having a size of about 30 kDa to 50 kDa.
A general note: In western blotting, separated proteins are transferred to a membrane and probed.

A further series has as its system NEFL. Put plainly: NEFL expression level in ALS-MNs (quantitative PCR). It is filed as cell-based, human. The note with it: AA addition.
Series [3] has as its system ALS-iPS cell-derived neurons. The experiment in a line: Gene expression category analysis (gene ontology) in ALS-iPS cell-derived neurons. It is filed as cell-based, human. The note with it: AA addition vs non-addition; FIG. 13A.
A further series concerns NEFM. The experiment in a line: NEFM expression level in ALS-MNs (quantitative PCR). It is filed as cell-based, human. Particulars: AA addition.
Series [4] concerns ALS-MNs. Put plainly: Length of neurite in HB9::GFP-positive ALS-MNs (IN Cell Analyzer 2000). It is filed as cell-based, human. The note with it: AA addition vs control group; FIGS. 12E and F.
The subject of series [5] is ALS-MNs. The experiment in a line: Arsenite-induced cell death of iPS cell-derived ALS motor neurons (HB9::GFP-positive cell number). The class given is cell-based, human. Particulars: added 16 or 48 hr before arsenite addition, FIG. 12D.
Series [6] concerns ALS-MNs.

For the molecule `CCCCCCCCCCCCCCCc1cccc(O)c1C(=O)O` [anacardic acid], in series [1], the “TNFα/NF-κB, andorogen receptor and α6β4 integrin pathways” value is on record as “decreased”. For the same molecule, the “amount of insoluble TDP-43” value in the series on insoluble TDP-43 is “decreased”. In addition, the “amount of MDA-modified protein in the total protein” value in the series on ALS-MNs [2] is “decreased the amount”. The “expression level of NEFL” value with NEFL was “increased”. For the same molecule, in series [3], the “factors relating to intermediate filament cytoskeleton, intermediate filament and keratin filament” value is listed as “increased”; the “factors relating to translation, RNP complex, RNA binding, RNA metabolism pathway, RNA processing, RNA splicing and spliceosomal complex” value was “decreased”. The “expression level of NEFM” value in the series with NEFM is “increased”. In addition, the “length of neurite in ALS-MNs” value with ALS-MNs [4] is listed as “significantly increased”.

Regarding `CO[C@]1(C)C[C@@]2(CO2)[C@H](O)[C@@H](/C=C/C(C)=C/C[C@@H]2O[C@H](C)[C@H](NC(=O)/C=C\[C@H](C)OC(C)=O)C[C@@H]2C)O1` [splicesostatin A], in the series with ALS-MNs [5] (100 ng/ml), the “suppression of arsenite-induced cell death of ALS-MNs” value is given as “did not show such action”.

In the case of `CC(/C=C/C(=O)NO)=C\[C@@H](C)C(=O)c1ccc(N(C)C)cc1` [trichostatin A], in the series on ALS-MNs [5] (3 μM), the “suppression of arsenite-induced cell death of ALS-MNs” value was “did not show such action”.

Consider arsenite, for which, in the series with ALS-MNs [6], the RNA granule formation entry is recorded as “promotion”, the “insoluble TDP-43” value is on record as “increase” and the “number of cells subjected to EthD-1-positive injury” value is recorded as “significantly high”.
